# Laboratory results from publication PMC11714206, “Massively Parallel Screening of Toll/Interleukin‐1 Receptor (TIR)‐Derived Peptides Reveals Multiple Toll‐Like Receptors (TLRs)‐Targeting Immunomodulatory Peptides” (Advanced Science, 2024).
# Target: T1, MAL^TIR (Homo sapiens, UniProt P58753)
# T1 construct: MAL (residues 79–221); 6xHis; made in house; host or cells: E. coli BL21 (DE3)
# Assay: T‐Surf phage library (P8 and P3) selection against MAL^TIR, four rounds, NGS read counts
# Type: binding
# Conditions: for P8_MAL Rank (after) / P8_MAL Rank (before): P8 library; for Population: 4th round of selection against MAL TIR, share of NGS reads; for P3_MAL Rank (after) / P3_MAL Rank (before): P3 library
# Summary of the method: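 Coat TIR domain 5 µg mL^−1 overnight; block 0.2% BSA/PBS 1 h, 4 °C; add phage library 1 h, RT; wash ×4 PBS/0.5% Tween‐20; elute 100 mM HCl, neutralize Tris; amplify in TG1, PEG‐precipitate. Repeat to round 4; barcode PCR, NovaSeq, count reads.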
# [1] = 4R selection against MAL, rank after grouping
# [2] = 4R selection against MAL, rank before grouping
# [3] = selection against MAL, rank after grouping
# [4] = selection against MAL, rank before grouping
# [5] = selection against MAL TIR, rank by count after grouping
# [6] = selection against MAL TIR, rank by count before grouping
# [7] = P8_MAL: rank by count after grouping
# [8] = P8_MAL: rank by count before grouping
# [9] = selection against MAL, rank by count after grouping
# [10] = selection against MAL, rank by count before grouping
# [11] = P8_MAL pool: P8 T-Surf phage library
# [12] = P3_MAL: rank by count after grouping
# [13] = P3_MAL: rank by count before grouping
# [14] = P3_MAL pool: P3 T-Surf phage library
# T1 sequence (P58753 79-221): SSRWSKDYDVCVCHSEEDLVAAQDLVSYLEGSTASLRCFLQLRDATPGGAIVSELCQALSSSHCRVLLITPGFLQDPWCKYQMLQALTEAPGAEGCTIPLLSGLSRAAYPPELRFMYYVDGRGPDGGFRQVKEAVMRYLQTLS
sequence,measurement,setting,value
LFFWASLNKLLRSDGR,P8_MAL Rank (after),[1],648
same,P8_MAL Rank (before),[2],2065
LFFWDSLKHLLRCDGC,P8_MAL Rank (after),[1],593
same,P8_MAL Rank (before),[2],2068
LFFWDSLKQLLRSAGR,P8_MAL Rank (after),[3],564
same,P8_MAL Rank (before),[4],2069
LFFWDSLKQLMRSDGR,P8_MAL Rank (after),[5],283
same,P8_MAL Rank (before),[6],2070
LFFWECLKKLLRRDGR,P8_MAL Rank (after),[1],601
same,P8_MAL Rank (before),[2],2071
LFFWEHLKQLLRNDGR,P8_MAL Rank (after),[3],513
same,P8_MAL Rank (before),[4],2073
LFFWEILKQLLRSAGR,Rank (after),[7],454
same,Rank (before),[8],2074
LFFWEKLKSVLGNPTM,P8_MAL Rank (after),[9],693
same,P8_MAL Rank (before),[10],2067
LFFWEKLRQLLRRAAS,Rank (after),[7],387
same,Rank (before),[8],2124
LFFWERLKQLLRSDCR,Rank (after),[7],100
same,Rank (before),[8],2072
LFFWESLKKLLRSAGR,P8_MAL Rank (after),[3],531
same,P8_MAL Rank (before),[4],2114
LFFWESLKNVLGSDGR,Rank (after),[7],431
same,Rank (before),[8],2115
LFFWESLKNVLRKPGL,P8_MAL Rank (after),[3],495
same,P8_MAL Rank (before),[4],2116
LFFWESLKPLPRRDGR,Rank (after),[7],467
same,Rank (before),[8],2088
LFFWESLKQLLGNPTM,Rank (after),[7],177
same,Rank (before),[8],909
LFFWESLKQLLRAMA,Rank (after),[7],473
same,Rank (before),[8],2095
LFFWESLKQLLRRAGL,P8_MAL Rank (after),[5],252
same,P8_MAL Rank (before),[6],2096
LFFWESLKQLLRRWP,P8_MAL Rank (after),[3],563
same,P8_MAL Rank (before),[4],2097
LFFWESLKQLLRSAGR,Population,[11],0.0034%
LFFWESLKQLLRSDG,Rank (after),[7],178
same,Rank (before),[8],2104
LFFWESLKQLLRSGGR,Population,[11],0.0034%
LFFWESLKQLLRSVGH,P8_MAL Rank (after),[3],538
same,P8_MAL Rank (before),[4],2102
LFFWESLKQLLRSVGR,Population,[11],0.0034%
LFFWESLKQLLRTVLGKPTM,P8_MAL Rank (after),[1],669
same,P8_MAL Rank (before),[2],2109
LFFWESLKQPLRSEGR,P8_MAL Rank (after),[1],608
same,P8_MAL Rank (before),[2],2112
LFFWESLKQRLRSDVR,P8_MAL Rank (after),[5],193
same,P8_MAL Rank (before),[6],2118
LFFWGSLKHLLRSGCR,P8_MAL Rank (after),[9],691
same,P8_MAL Rank (before),[10],2059
LFFWGSLKQLLRNDGR,Rank (after),[7],128
same,Rank (before),[8],2061
LFFWGSLRQLLRNDDG,P8_MAL Rank (after),[5],260
same,P8_MAL Rank (before),[6],2058
LFFWKSLKQLLRSDSR,Rank (after),[7],124
same,Rank (before),[8],2128
LFFYESLKHLLRIDCR,P8_MAL Rank (after),[1],646
same,P8_MAL Rank (before),[2],2170
LFLGESLKLLRRSDGR,P8_MAL Rank (after),[1],652
same,P8_MAL Rank (before),[2],2150
LFLWASLKQLLRSANC,P8_MAL Rank (after),[1],661
same,P8_MAL Rank (before),[2],2142
LFLWDSLKQPLRSDGR,P8_MAL Rank (after),[5],224
same,P8_MAL Rank (before),[6],2143
LFLWECLKQLLRSDGR,P8_MAL Rank (after),[3],507
same,P8_MAL Rank (before),[4],2144
LFLWESLKHLLRSDGR,P8_MAL Rank (after),[5],232
same,P8_MAL Rank (before),[6],2146
LFLWESLKHLLRSDSL,P8_MAL Rank (after),[9],719
same,P8_MAL Rank (before),[10],2147
LFWELLRQALGSRNRL,P8_MAL Rank (after),[3],488
same,P8_MAL Rank (before),[4],2152
LFYEESLKQLLRANDR,P8_MAL Rank (after),[5],276
same,P8_MAL Rank (before),[6],1101
LFYERLVSLILRDTRG,P8_MAL Rank (after),[3],496
same,P8_MAL Rank (before),[4],1104
LFYERLVSLILRHTRV,P8_MAL Rank (after),[1],624
same,P8_MAL Rank (before),[2],1103
LFYERLVSLMLRDTKG,P8_MAL Rank (after),[5],274
same,P8_MAL Rank (before),[6],1105
LFYGRMVSLILRDTNV,P8_MAL Rank (after),[1],639
same,P8_MAL Rank (before),[2],1100
LGFFCNQAKALSDRGI,Rank (after),[12],435
same,Rank (before),[13],2116
LGFLRHLRHHLQAKDH,P3_MAL Rank (after),[9],693
same,P3_MAL Rank (before),[10],2082
LGFLSHLALNLQAKEH,Rank (after),[12],399
same,Rank (before),[13],2081
LGKPGVTDEAQETGSL,Rank (after),[12],95
same,Rank (before),[13],95
LHNNRILVLITLPTNV,P3_MAL Rank (after),[1],671
same,P3_MAL Rank (before),[2],2132
LKAERWRQALEKAGKL,P3_MAL Rank (after),[5],226
same,P3_MAL Rank (before),[6],2304
LKAESWRQAPEKAGKL,P3_MAL Rank (after),[5],259
same,P3_MAL Rank (before),[6],2306
LKEESWRQAQEKAGKL,P3_MAL Rank (after),[9],744
same,P3_MAL Rank (before),[10],2310
LKEESWRRALERAGKL,Rank (after),[12],410
same,Rank (before),[13],2307
LKGESWRQAREKAGKL,P3_MAL Rank (after),[3],533
same,P3_MAL Rank (before),[4],2303
LKVEGWRLALEKAGTL,P3_MAL Rank (after),[3],484
same,P3_MAL Rank (before),[4],2258
LKVERWRQALEKADKL,P3_MAL Rank (after),[5],215
same,P3_MAL Rank (before),[6],2299
LKVESWLQTLAKAGKL,P3_MAL Rank (after),[9],763
same,P3_MAL Rank (before),[10],2262
LKVESWRQALEKAGT,P3_MAL Rank (after),[3],549
same,P3_MAL Rank (before),[4],2274
LKVESWRQALKQRAL,P3_MAL Rank (after),[3],483
same,P3_MAL Rank (before),[4],2283
LKVESWRRAPEKAGKL,Rank (after),[12],457
same,Rank (before),[13],2263
LKVKLASGAGKSGQT,P3_MAL Rank (after),[1],619
same,P3_MAL Rank (before),[2],2301
LKWGDPRQASKLGYTM,P3_MAL Rank (after),[9],761
same,P3_MAL Rank (before),[10],2242
LKWGDPYFLEQTALCD,P3_MAL Rank (after),[9],771
same,P3_MAL Rank (before),[10],2208
LKWGDPYFWIKLRYTM,P3_MAL Rank (after),[5],233
same,P3_MAL Rank (before),[6],2212
LKWGDPYFWRKIRYAM,P3_MAL Rank (after),[3],530
same,P3_MAL Rank (before),[4],2248
LKWGDPYFWSNCVMR,P3_MAL Rank (after),[9],699
same,P3_MAL Rank (before),[10],2216
LLFWGSLKQLLRSDGR,Rank (after),[7],111
same,Rank (before),[8],2159
LLIYRFVKKRNYLLGH,Rank (after),[12],416
same,Rank (before),[13],2085
LNLRTKVLNYLMRTKT,Population,[14],0.00488%
LNVESWRQALEKAGKL,Population,[14],0.00338%
LNWGDPYFWRKLRYAM,Rank (after),[12],185
same,Rank (before),[13],2196
LQNHCKLALTKVANLV,P3_MAL Rank (after),[5],230
same,P3_MAL Rank (before),[6],2137
LQNQWKLALTAAANLSGW,P3_MAL Rank (after),[1],629
same,P3_MAL Rank (before),[2],2147
LQNQWKLALTKVAHLL,P3_MAL Rank (after),[5],219
same,P3_MAL Rank (before),[6],2152
LQNQWKLALTKVAKLE,P3_MAL Rank (after),[5],236
same,P3_MAL Rank (before),[6],2160
LQNQWKLALTNVASLV,Rank (after),[12],459
same,Rank (before),[13],2149
LQNQWKLALTQAAN,P3_MAL Rank (after),[5],231
same,P3_MAL Rank (before),[6],827
LQNQWRNALTAAANLSGW,Rank (after),[12],422
same,Rank (before),[13],2140
LRKIADLSGWTLKSFR,P8_MAL Rank (after),[9],677
same,P8_MAL Rank (before),[10],2165
LSGWAFKRGSCAEYEY,Rank (after),[12],398
same,Rank (before),[13],2188
LSVESWRQALEKAGQL,Rank (after),[12],392
same,Rank (before),[13],2181
LVAHAISKKMKLFATI,Rank (after),[12],411
same,Rank (before),[13],2093
LVAHEISKKMKIFATI,Rank (after),[7],182
same,Rank (before),[8],923
LVAHEISKKMKIFCDH,P3_MAL Rank (after),[3],490
same,P3_MAL Rank (before),[4],2102
LVAHEISKKMNIFATV,P3_MAL Rank (after),[9],764
same,P3_MAL Rank (before),[10],2101
LVAHGISNKLKIFATI,Rank (after),[12],387
same,Rank (before),[13],2092
LVFWESLKHLLRSDDR,P8_MAL Rank (after),[1],636
same,P8_MAL Rank (before),[2],2163
LVVQENLKQLLLFGGL,P3_MAL Rank (after),[9],745
same,P3_MAL Rank (before),[10],2091
MERVKAFHQRLKTALGH,P3_MAL Rank (after),[1],587
same,P3_MAL Rank (before),[2],2929
MERVKAFHQRLKTAPI,P3_MAL Rank (after),[5],225
same,P3_MAL Rank (before),[6],2932
MFGGDTFHDFLDLISM,P8_MAL Rank (after),[5],192
same,P8_MAL Rank (before),[6],1005
MRLPAICNVIWCSVA,Rank (after),[12],388
same,Rank (before),[13],2938
MSHLYQGLKNRGI,Population,[14],0.00413%
MSHLYQGLKNRGIFT,Rank (after),[12],117
same,Rank (before),[13],254
MSHLYQGLNNRGIFIF,P3_MAL Rank (after),[3],527
same,P3_MAL Rank (before),[4],2944
MSHLYQGLQHRGIFTF,Rank (after),[12],396
same,Rank (before),[13],2943
MSMRPGDRLQRSGI,Rank (after),[12],454
same,Rank (before),[13],2967
MSQRYQGLKNRGIFTF,P3_MAL Rank (after),[1],663
same,P3_MAL Rank (before),[2],2959
MVRVKAFHKRLKTALG,Rank (after),[12],438
same,Rank (before),[13],2922
NAFTGHLHRYLVQRGV,Population,[14],0.00488%
NAFTGNLHRYLVQRGV,P3_MAL Rank (after),[5],287
same,P3_MAL Rank (before),[6],3276
NDVEGCRDALTKVASL,P3_MAL Rank (after),[9],679
same,P3_MAL Rank (before),[10],3278
NELVHVWSSKAHSPVG,P3_MAL Rank (after),[9],731
same,P3_MAL Rank (before),[10],3294
NFLGLLYNELVQAGLH,P8_MAL Rank (after),[5],259
same,P8_MAL Rank (before),[6],2675
NGHESELIKEIVVTIV,P3_MAL Rank (after),[1],647
same,P3_MAL Rank (before),[2],3257
